Patent publication EP4635500A1, “THERAPEUTIC AGENT FOR BACTERIAL INFECTION” (Sumitomo Pharma Co., Ltd., priority 2022, dated 2024)
≈ marks a conversion by molar mass, not a printed value. Like-named read-outs stand apart in the source and are kept apart here.

Tests used:
[1] = system: A. baumannii; assay: MIC, broth microdilution, 6 strains (Example 6, Table 7); format: cell-based
[2] = target: OXA-23 (Acinetobacter baumannii, UniProt Q9L4P2); assay: Ki,app against β-lactamase (Example 1, Table 1); format: biochemical; conditions: OXA-23, class D; 30 min preincubation; n.d.: too low inhibitor activity at 100 µmol/L; read-out: Ki app
Protocol: After stirring, the resultants were preincubated for 30 minutes at 37°C. The reporter substrate solution was incubated at 37°C for 15 minutes or more, dispensed at 100 µL/well, and measured for a change in absorbance by a microplate reader at 37°C. For each measured concentration of the positive control and the inhibitor, an initial rate (µmol/L/sec) was determined from a time to be analyzed and a change in product amount. […] Ki,app for each inhibitor concentration was calculated from the slope, the inhibitor concentration, an enzyme concentration, Km, and kcat using Expression 2. If the initial rate was determined at two or more concentrations for each inhibitor and a plurality of Ki,app could be obtained, an average value was used as the Ki,app for the inhibitor. t−tc = Km /Vmax x ([Inhibitor]/Ki,app)x Ln[S]0 /[S] [formula] Ki,app = [Inhibitor]x Km /(kcatx[Enzyme])x 1/slope [formula]
The experiment was performed in duplicate.

[3] = system: Klebsiella pneumoniae; assay: MIC, broth microdilution, standard strains and Japanese clinical isolates (Example 5, Table 4); format: cell-based
[4] = system: Enterobacter hormaechei; assay: as above; format: cell-based; conditions: ATCCBAA2082; KUB4001 Enterobacter hormaechei ATCC BAA-2082, KPC-2
[5] = system: 53 CRE and CPE strains; assay: MICrange, MIC50, MIC80, MIC90 for 53 bacterial isolates (Example 5, Table 5); format: cell-based; conditions: 53 bacterial isolates
[6] = system: Escherichia coli; assay: MIC, broth microdilution, standard strains and Japanese clinical isolates (Example 5, Table 4); format: cell-based
[7] = system: CRE and CPE strains; assay: MIC, broth microdilution, standard strains and Japanese clinical isolates (Example 5, Table 4 continued; organism of each KUB strain not given); format: cell-based
[8] = system: Providencia rettgeri; assay: MIC, broth microdilution, standard strains and Japanese clinical isolates (Example 5, Table 4); format: cell-based; conditions: ATCCBAA2525; KUB4010 Providencia rettgeri ATCC BAA-2525, OXA-181
[9] = system: Enterobacter cloacae; assay: as above; format: cell-based

Chain of OXA-23 (Q9L4P2 18-273): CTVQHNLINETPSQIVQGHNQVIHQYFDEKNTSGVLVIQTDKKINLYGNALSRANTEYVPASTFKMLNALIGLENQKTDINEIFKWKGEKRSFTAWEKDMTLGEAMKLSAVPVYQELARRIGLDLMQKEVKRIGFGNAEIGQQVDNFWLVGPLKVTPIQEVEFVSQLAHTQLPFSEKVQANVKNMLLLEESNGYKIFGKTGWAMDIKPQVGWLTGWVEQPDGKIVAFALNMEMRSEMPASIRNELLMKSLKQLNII

For Colistin sulfate, the MIC ([1]; A. baumannii strain with AMR gene ADC-25, OXA-23, OXA-66, TEM-ID, Carbapenem-resistant) was 1 µg/mL, the MIC ([1]; A. baumannii strain with AMR gene ADC-25, OXA-66, TEM-1D, Carbapenem-susceptible) was 2 µg/mL and the MIC ([1]; A. baumannii strain with AMR gene ADC-25, XA-23, OXA-66, strA, strB, sul2, TEM-1D, Carbapenem-resistant) was 1 µg/mL. For the same molecule, the MIC ([1]; A. baumannii strain with AMR gene NDM-1, OXA-64, Carbapenem-resistant) was 1 µg/mL, the MIC ([1]; A. baumannii strain with AMR gene OXA-23, OXA-69, TEM-1D, Carbapenem-resistant) was 1 µg/mL and the MIC ([1]; A. baumannii strain with AMR gene OXA-24, OXA-65, Carbapenem-resistant) was 1 µg/mL.
In the case of O=C(NC1CCNCC1)[C@@H]1CC[C@@H]2CN1C(=O)N2OS(=O)(=O)O [Relebactam, relebactam], the Ki [2] is reported as 5.64 ± 0.522 µM.
For C[C@@H](O)[C@H]1C(=O)N2C(C(=O)O)=C(SCCN=CN)C[C@H]12 [Imipenem, imipenem], the MIC ([3]; ATCCBAA1898, KUB3996 Klebsiella pneumoniae ATCC BAA-1898, KPC-2) was 32 µg/mL (≈ 107 µM), the MIC ([3]; ATCCBAA1899, KUB3997 Klebsiella pneumoniae ATCC BAA-1899, KPC-2) was 8 µg/mL (≈ 26.7 µM) and the MIC ([3]; ATCCBAA1900, KUB3998 Klebsiella pneumoniae ATCC BAA-1900, KPC-3) was 32 µg/mL (≈ 107 µM). The MIC ([3]; ATCCBAA1904, KUB3999 Klebsiella pneumoniae ATCC BAA-1904, KPC-3) was 4 µg/mL (≈ 13.4 µM), the MIC ([3]; ATCCBAA2078, KUB4000 Klebsiella pneumoniae ATCC BAA-2078, KPC-3) was 8 µg/mL (≈ 26.7 µM) and the MIC ([3]; ATCCBAA2146, KUB4011 Klebsiella pneumoniae ATCC BAA-2146, NDM-1) was over 32 µg/mL. The MIC ([3]; ATCCBAA2342, KUB4003 Klebsiella pneumoniae ATCC BAA-2342, KPC-3) was 8 µg/mL (≈ 26.7 µM), the MIC ([3]; ATCCBAA2343, KUB4004 Klebsiella pneumoniae ATCC BAA-2343, KPC-3) was 16 µg/mL (≈ 53.4 µM) and the MIC ([3]; ATCCBAA2472, KUB4008 Klebsiella pneumoniae subsp. Pneumoniae ATCC BAA-2472, NDM-1) was 32 µg/mL (≈ 107 µM). The MIC ([3]; ATCCBAA2473, KUB4009 Klebsiella pneumoniae ATCC BAA-2473, NDM-1) was 32 µg/mL (≈ 107 µM), the MIC ([3]; KUB3631 Klebsiella pneumoniae Clinical isolate, IMP-1) was 1 µg/mL (≈ 3.34 µM) and the MIC ([3]; KUB3633 Klebsiella pneumoniae Clinical isolate, IMP-6) was 0.12 µg/mL (≈ 0.401 µM). It also gave an MIC ([3]; KUB3634 Klebsiella pneumoniae Clinical isolate, IMP-6) of 0.12 µg/mL (≈ 0.401 µM), an MIC ([3]; KUB3635 Klebsiella pneumoniae Clinical isolate, IMP-1) of over 32 µg/mL and an MIC [4] of 32 µg/mL (≈ 107 µM). The MIC50 ([5]; read-out: MIC50) was 4 µg/mL (≈ 13.4 µM), the MIC80 ([5]; read-out: MIC80) was 32 µg/mL (≈ 107 µM) and the MIC90 ([5]; read-out: MIC90) was 32 µg/mL (≈ 107 µM). The MIC ([6]; ATCCBAA2452, KUB4005 Escherichia coli ATCC BAA-2452, NDM-1) was 4 µg/mL (≈ 13.4 µM), the MIC ([6]; ATCCBAA2471, KUB4007 Escherichia coli ATCC BAA-2471, NDM-6) was 32 µg/mL (≈ 107 µM) and the MIC ([7]; strain KUB3148, carbapenemase gene KPC-3, read-out: MIC) was 1 µg/mL (≈ 3.34 µM). The MIC ([7]; strain KUB3149, carbapenemase gene NDM-1, read-out: MIC) was 4 µg/mL (≈ 13.4 µM), the MIC ([7]; strain KUB3150, carbapenemase gene OXA-48, read-out: MIC) was 0.5 µg/mL (≈ 1.67 µM) and the MIC ([7]; strain KUB3151, carbapenemase gene IMP-1, read-out: MIC) was 0.5 µg/mL (≈ 1.67 µM). For the same molecule, the MIC ([7]; strain KUB3152, carbapenemase gene KPC-2, read-out: MIC) was 8 µg/mL (≈ 26.7 µM), the MIC ([7]; strain KUB3153, carbapenemase gene KPC-3, read-out: MIC) was 16 µg/mL (≈ 53.4 µM) and the MIC ([7]; strain KUB3154, carbapenemase gene KPC-2, read-out: MIC) was 1 µg/mL (≈ 3.34 µM). It also gave an MIC ([7]; strain KUB3163, carbapenemase gene IMP-1) of 2 µg/mL (≈ 6.68 µM), an MIC ([7]; strain KUB3606, carbapenemase gene KPC-38) of over 32 µg/mL and an MIC ([7]; strain KUB3620, carbapenemase gene -) of 32 µg/mL (≈ 107 µM). The MIC ([7]; strain KUB3628, carbapenemase gene IMP-1) was 32 µg/mL (≈ 107 µM), the MIC ([7]; strain KUB3629, carbapenemase gene IMP-1) was 8 µg/mL (≈ 26.7 µM) and the MIC [8] was 4 µg/mL (≈ 13.4 µM). For the same molecule, the MIC ([9]; ATCCBAA2341, KUB4002 Enterobacter cloacae ATCC BAA-2341, KPC-3) was 16 µg/mL (≈ 53.4 µM) and the MIC ([9]; ATCCBAA2468, KUB4006 Enterobacter cloacae ATCC BAA-2468, NDM-1) was over 32 µg/mL.
